Experimental data: ChEMBL document CHEMBL3507680, “University of Dundee, Gates Library screen for HepG2 cell viability”

Test: Human HepG2 cell viability assay in 384 well format
Format: toxicity, cell-based
Design: dose 125 nL, time 70.5 hour; cytotoxicity at 70.5 h: concentration not given beside the values
Conditions: HepG2 cells, read-out: Inhibition

For `COc1cc(-c2cnnc(NCC3CC3)n2)cc(OC)c1OC`, the cytotoxicity at 70.5 h was 5.52%.
For `O=C1N(Cc2cccc(F)c2F)CCCC1(O)CNCc1ccccc1` (stereo unspecified), the cytotoxicity at 70.5 h was 19.6%.
`CCc1ncc2c(n1)CN(C(=O)CNC(=O)C(C)C)C2` showed a cytotoxicity at 70.5 h of 22.7%.
`CN1C(=O)CC(C(=O)O)C12CCN(Cc1cc(Cl)ccc1F)CC2` (stereo unspecified) gave a cytotoxicity at 70.5 h of 8.5%.
In the case of `Fc1ccc(N2CCCN(Cc3ccc(-c4cc[nH]n4)o3)CC2)cc1`, the cytotoxicity at 70.5 h is reported as -0.367%.
In the case of `COc1cccc2ccc(CN3CCN(c4ncccc4C)CC3)nc12`, the cytotoxicity at 70.5 h is reported as -7.71%.
`Cc1c[nH]c(C(=O)N2C[C@H]3CC[C@@H]2CN(Cc2cscn2)C3)n1` showed a cytotoxicity at 70.5 h of -15.6%.
`COCC(Nc1ncnc2sc(C(=O)O)c(C)c12)c1ccnn1C` (stereo unspecified) gave a cytotoxicity at 70.5 h of 0.588%.
`OC(c1cccs1)C1CCN(c2ncccn2)CC1` (stereo unspecified) showed a cytotoxicity at 70.5 h of -8.6%.
Work on `CN(Cc1nc(C2CC2)no1)C(=O)C1COc2ccccc2C1` (stereo unspecified) yielded a cytotoxicity at 70.5 h of -0.624%.
Compound `CN(C)C(=O)N1C[C@@H]2CC[C@H](C1)N(Cc1nnc(C3CC3)o1)C2` has a cytotoxicity at 70.5 h of -16.8%.
Compound `CSCCCNC(=O)C(c1ccccc1C)N(C)C` (stereo unspecified) has a cytotoxicity at 70.5 h of -6.07%.
In the case of `NC(=O)c1cccc(CC2CCN(C(=O)CCc3cccc(F)c3)C2)c1` (stereo unspecified), the cytotoxicity at 70.5 h is reported as -8.51%.
Work on `CCc1cccc(NC(=O)CCN2CC=C(c3cnn(C)c3)CC2)c1` yielded a cytotoxicity at 70.5 h of -5.53%.
Compound `CN(Cc1cccnc1)CC1CC12CCCC2` (stereo unspecified) has a cytotoxicity at 70.5 h of -5.63%.
Compound `Cc1nn(CCC(=O)N2CCCC(OCc3cccnc3)C2)c(C)c1C` (stereo unspecified) has a cytotoxicity at 70.5 h of -6.47%.
Work on `Cn1nnnc1SCCNC(=O)CC1CCc2ccccc21` (stereo unspecified) yielded a cytotoxicity at 70.5 h of -1.31%.
Compound `COc1cccc(CC(C)NCC(=O)Nc2ccccc2C)c1` (stereo unspecified) has a cytotoxicity at 70.5 h of -0.681%.
With `O=C(NCC1CCCO1)c1cc(COc2ccccc2F)[nH]n1` (stereo unspecified) the cytotoxicity at 70.5 h was -3.44%.
With `CNc1nc(C(=O)N2CCCCC2c2ccc(CN(C)C)cc2)cs1` (stereo unspecified) the cytotoxicity at 70.5 h was 1.16%.
For `O=C(NCc1n[nH]c2c1CCCCC2)c1cnn2c1CCCC2`, the cytotoxicity at 70.5 h was -12.2%.
With `Cc1ccc(C)c(N2CCN(CC3(O)CCNC3)CC2)c1` (stereo unspecified) the cytotoxicity at 70.5 h was -0.198%.
In the case of `Cc1nc(CCCNC(=O)C2CC(=O)N(C3CCCC3)C2)sc1C` (stereo unspecified), the cytotoxicity at 70.5 h is reported as -9.24%.
For `COc1cc2c(cc1CN1C[C@@H](CN3CCOCC3)[C@@H](CO)C1)CCC2`, the cytotoxicity at 70.5 h was -2.99%.
For `CC(C)c1nccc(CN2CCCC(O)(CN3CCCC3)C2)n1` (stereo unspecified), the cytotoxicity at 70.5 h was -0.735%.
Work on `O=C(c1ccc(S(=O)(=O)NCCc2ccccn2)cc1)N1CCCC1` yielded a cytotoxicity at 70.5 h of -14.8%.
Work on `CSCc1noc(CN2CCC3(CC2)CC(=O)N(CC(C)C)C3)n1` yielded a cytotoxicity at 70.5 h of -2.72%.
With `CC[C@H](N)C(=O)Nc1nn(CC(F)(F)F)c2cc(OC(C)C)ccc12` the cytotoxicity at 70.5 h was -14.2%.
`O=C1CSc2ccccc2N1Cc1noc(C2CCCO2)n1` (stereo unspecified) gave a cytotoxicity at 70.5 h of -5.67%.
With `CCc1cc(CN(C)C(=O)CN2CC(Cc3ccccc3)CC2=O)on1` (stereo unspecified) the cytotoxicity at 70.5 h was 2.31%.
With `CN(C(=O)c1cnc(N2CCOCC2)nc1)C1Cc2ccccc2C1` the cytotoxicity at 70.5 h was -12.4%.
With `COc1cc(CN2CCCC2)ccc1OC12CCCN(CC1)C2` (stereo unspecified) the cytotoxicity at 70.5 h was -18.9%.
With `Cc1nc(CN2CCCC(CCc3ccccc3C(F)(F)F)C2)co1` (stereo unspecified) the cytotoxicity at 70.5 h was 22.6%.
Compound `Cc1nc(CCNC(=O)c2cc(C(C)C)nn2C)sc1C` has a cytotoxicity at 70.5 h of -10.1%.
`CCN(CCn1cccn1)C(=O)CN1C(=O)OC[C@@H]1C(C)C` showed a cytotoxicity at 70.5 h of -3.13%.
In the case of `Cc1nc(CC2CCN(C(=O)C(c3ccccc3C)N(C)C)CC2)no1` (stereo unspecified), the cytotoxicity at 70.5 h is reported as -13.1%.
With `CN(Cc1ccc(C(=O)NCC2COCCO2)c(=O)[nH]1)CC(C)(C)C` (stereo unspecified) the cytotoxicity at 70.5 h was 6.27%.
Work on `CC1=C(C(=O)N(C)Cc2n[nH]c3c2CCCCC3)C(C)NC(=O)N1` (stereo unspecified) yielded a cytotoxicity at 70.5 h of 31%.
Work on `Cc1ccc(N2CCC(c3nccn3Cc3cscn3)CC2)nn1` yielded a cytotoxicity at 70.5 h of 0.241%.
Compound `CCNC(=O)[C@@H]1C[C@@H](NC(=O)c2cnc[nH]c2=O)CN1Cc1ccsc1` has a cytotoxicity at 70.5 h of -2.36%.
In the case of `CC(=O)N1CCN(C(=O)Nc2ccccc2Cl)[C@H]2CS(=O)(=O)C[C@H]21`, the cytotoxicity at 70.5 h is reported as -16%.
In the case of `CCc1nccn1CCC(=O)N1CC(=O)N(c2ccccc2C)CC1C` (stereo unspecified), the cytotoxicity at 70.5 h is reported as -7.9%.
Work on `O=C(NCc1nc(NC2CCCC2)c2cc(Cl)ccc2n1)c1ccoc1` yielded a cytotoxicity at 70.5 h of 5.65%.
`COc1ccc(-c2nccn2C[C@@H]2CCCN3CCCC[C@H]23)cc1` showed a cytotoxicity at 70.5 h of 1.3%.
`CC(C)c1cc(C(=O)N2CCCC2c2nc(-c3ccccc3)no2)[nH]n1` (stereo unspecified) showed a cytotoxicity at 70.5 h of -0.676%.
Compound `Cc1nc[nH]c1-c1nccn1CCN1CCCOC1=O` has a cytotoxicity at 70.5 h of -5.03%.
For `COc1cc(OC)nc(N2CCCC(c3nccn3CCN(C)C)C2)n1` (stereo unspecified), the cytotoxicity at 70.5 h was 30.4%.
`CCCN1CCN(Cc2cccc(OC(C)C)c2)[C@H]2CS(=O)(=O)C[C@H]21` showed a cytotoxicity at 70.5 h of 12.5%.
`CNc1ncccc1C(=O)N1CCN(Cc2ccc(C)cc2)C(=O)C1C` (stereo unspecified) gave a cytotoxicity at 70.5 h of -13.8%.
`Cc1nc2c(c(=O)n1C)CCN(C(=O)Cn1cccc1)CC2` showed a cytotoxicity at 70.5 h of -4.24%.
Work on `CCCc1nnc(N2CCC(N3CCN(CCO)CC3)CC2)o1` yielded a cytotoxicity at 70.5 h of -5.69%.
With `CN(Cc1cnn(C)c1)Cc1nc(CCc2ccccc2)no1` the cytotoxicity at 70.5 h was -4.56%.
Compound `CN(Cc1ccc(-n2cccn2)cc1)C(=O)CCC(F)(F)F` has a cytotoxicity at 70.5 h of 26.9%.
Compound `CC(C)[C@H]1CN(CCCO)C[C@@H]1NC(=O)CCS(C)(=O)=O` has a cytotoxicity at 70.5 h of -3.16%.
Compound `CCCn1cc(C(=O)NC(CC(=O)O)c2ccccc2F)c(C)n1` (stereo unspecified) has a cytotoxicity at 70.5 h of 6.87%.
Compound `CCC(CC)n1nc(C)cc1NC(=O)CC1CCOCC1` has a cytotoxicity at 70.5 h of -8.16%.
With `CSCc1nc(CNC(=O)C2CCCN(C(=O)N(C)C)C2)cs1` (stereo unspecified) the cytotoxicity at 70.5 h was -7.03%.
Work on `Cc1cccc(C)c1OC1CN(Cc2cnc(-c3ccco3)nc2)C1` yielded a cytotoxicity at 70.5 h of -6.4%.
For `C[C@@H]1CN(C(=O)C2CCS(=O)(=O)CC2)C[C@]1(C)O`, the cytotoxicity at 70.5 h was -8.15%.
`CSCCCN(CCN1CCOCC1)Cc1ccco1` showed a cytotoxicity at 70.5 h of -9.79%.
For `CO[C@H]1CN(C(=O)c2ccc(-c3ccccc3)[nH]2)CC[C@H]1N`, the cytotoxicity at 70.5 h was -10.1%.
For `CSCCNC(=O)C1CCC(=O)N(C2CCCC2)C1` (stereo unspecified), the cytotoxicity at 70.5 h was 0.162%.
Compound `COc1cc(C)ccc1OCc1nc(C(=O)N2CCCNC(=O)C2)co1` has a cytotoxicity at 70.5 h of -5.88%.
In the case of `NCCc1nc(N(Cc2nccs2)C2CC2)c2ccccc2n1`, the cytotoxicity at 70.5 h is reported as 37.2%.
With `Cc1c(-c2ccccc2)ncn1CCCNc1cccnc1` the cytotoxicity at 70.5 h was -4.84%.
`Cn1nc(C(C)(C)C)cc1NC(=O)Cn1ccnc1` showed a cytotoxicity at 70.5 h of -10.5%.
With `CC(C)c1cncnc1-c1cc(F)cc2c1OC(CN)C2` (stereo unspecified) the cytotoxicity at 70.5 h was -1.8%.
`CC(C)c1cc(C(=O)N(C)C(C)c2nccs2)no1` (stereo unspecified) showed a cytotoxicity at 70.5 h of -7.34%.
For `O=C(CN1CCc2onc(-c3ccccc3F)c2C1)NC1CC1`, the cytotoxicity at 70.5 h was -9.25%.
For `COc1cc(F)ccc1C(C(=O)O)N1CCN(C2CCCCC2)CC1` (stereo unspecified), the cytotoxicity at 70.5 h was -4.9%.
`NC(=O)CN1CCCC(C(=O)N2CCC(O)(c3ccccc3)CC2)C1` (stereo unspecified) gave a cytotoxicity at 70.5 h of 31%.
With `CC(C)(NC(=O)c1coc(COc2cccc(F)c2)n1)C(N)=O` the cytotoxicity at 70.5 h was -8.32%.
`CC(C)N1CCC(CC(=O)NCC2OCCc3ccccc32)CC1` (stereo unspecified) showed a cytotoxicity at 70.5 h of -9.87%.
For `COC(=O)C(CO)NC(=O)c1cn(Cc2ccccc2F)nn1` (stereo unspecified), the cytotoxicity at 70.5 h was -8.74%.
For `Cc1ccc2nc(C(=O)N3CCC(CCn4cccn4)CC3)cn2c1`, the cytotoxicity at 70.5 h was 16%.
Work on `CC[C@@]1(O)CCN(C(=O)CCSCc2ccc(F)cc2)C[C@H]1O` yielded a cytotoxicity at 70.5 h of 14.3%.
With `CCc1noc(C2CCCCN2C(=O)c2ccccc2)n1` (stereo unspecified) the cytotoxicity at 70.5 h was -1.29%.
`COc1ccc2c(c1)OCC(CNC(=O)NC(C)(C)C)C2` (stereo unspecified) showed a cytotoxicity at 70.5 h of -0.00962%.
`COc1cc(Cl)cc(CN2CCCC(N3CCCC3)C2)c1OC` (stereo unspecified) gave a cytotoxicity at 70.5 h of -14.7%.
`O=C(Cc1ccsc1)N1CCC(c2ccncc2)CC1` gave a cytotoxicity at 70.5 h of -13.6%.
`CN(C)CCO[C@H]1C[C@@H](O)C12CCN(c1cnccn1)CC2` gave a cytotoxicity at 70.5 h of -6.05%.
